Source: ChEMBL document CHEMBL3616451, “Design and synthesis of 11α-substituted bile acid derivatives as potential anti-tuberculosis agents” (Bioorg Med Chem Lett, 2015)
≈ marks a conversion by molar mass, not a printed value. Calls of active or inactive are those of the source. The calls are words filed in the database; no cut-off is given here.

How the values were obtained:
[1] = test system: Mycobacterium tuberculosis; experiment: Anti-tubercular activity against rifampicin, isoniazid, ethambutol and pyrazinamide-sensitive Mycobacterium tuberculosis H37Ra ATCC 25177 assessed as growth inhibition at 30 ug/ml by XRMA method relative to control; type: functional; settings: read-out: GI
[2] = test system: Mycobacterium tuberculosis; experiment: Anti-tubercular activity against rifampicin, isoniazid, ethambutol and pyrazinamide-sensitive Mycobacterium tuberculosis H37Ra ATCC 25177 assessed as growth inhibition at 10 ug/ml by XRMA method relative to control; type: functional; settings: read-out: GI
[3] = test system: Mycobacterium tuberculosis; experiment: Anti-tubercular activity against rifampicin, isoniazid, ethambutol and pyrazinamide-sensitive Mycobacterium tuberculosis H37Ra ATCC 25177 assessed as growth inhibition at 3 ug/ml by XRMA method relative to control; type: functional; settings: read-out: GI
[4] = test system: Mycobacterium tuberculosis; experiment: Anti-tubercular activity against rifampicin, isoniazid, ethambutol and pyrazinamide-sensitive dormant phage of Mycobacterium tuberculosis H37Ra ATCC 25177 by serial dilution method; type: functional, organism-based
[5] = test system: Mycobacterium tuberculosis; experiment: Anti-tubercular activity against rifampicin, isoniazid, ethambutol and pyrazinamide-sensitive active phage of Mycobacterium tuberculosis H37Ra ATCC 25177 by serial dilution method; type: functional, organism-based
[6] = test system: Mycobacterium tuberculosis; experiment: Anti-tubercular activity against rifampicin, isoniazid, ethambutol and pyrazinamide-sensitive dormant phage of Mycobacterium tuberculosis H37Ra ATCC 25177 infected in human THP1 cells by neutral red assay; type: functional, organism-based; settings: H37Ra ATCC 25177, THP-1
[7] = test system: Mycobacterium tuberculosis; experiment: Anti-tubercular activity against rifampicin, isoniazid, ethambutol and pyrazinamide-sensitive active phage of Mycobacterium tuberculosis H37Ra ATCC 25177 infected in human THP1 cells by neutral red assay; type: functional, organism-based; settings: H37Ra ATCC 25177, THP-1
[8] = (§1) Cytotoxicity against human THP1 cells after 48 hrs by MTT assay; type: cell-based, THP-1; settings: THP-1 cells
THP-1 = experiment: as §1; type: cell-based; settings: thp-1, 48 h
[9] = Cytotoxicity against human PANC1 cells after 48 hrs by MTT assay; type: cell-based, PANC-1
[10] = (§2) Cytotoxicity against human A549 cells after 48 hrs by MTT assay; type: cell-based; settings: A549 cells
A549 = experiment: as §2; type: cell-based; settings: a549, 48 h
Escherichia coli = experiment: Antibacterial activity against Escherichia coli […] assessed as growth inhibition at 30 ug/ml relative to control; type: functional; settings: read-out: GI
Pseudomonas fluorescens = experiment: Antibacterial activity against Pseudomonas fluorescens ATCC 13525 assessed as growth inhibition at 30 ug/ml relative to control; type: functional; settings: read-out: GI
Staphylococcus aureus = experiment: Antibacterial activity against Staphylococcus aureus ATCC 29213 assessed as growth inhibition at 30 ug/ml relative to control; type: functional; settings: read-out: GI
Bacillus subtilis = experiment: Antibacterial activity against Bacillus subtilis ATCC 23857 assessed as growth inhibition at 30 ug/ml relative to control; type: functional

Question: For COC(=O)CC[C@@H](C)[C@H]1CC[C@H]2[C@H]3[C@H]([C@H](NC(=O)C(CO)NC(=O)OC(C)(C)C)C(=O)[C@]12C)[C@@]1(C)CC[C@@H](OC(C)=O)C[C@H]1C[C@H]3OC(C)=O (stereo partly specified), which inhibition of growth at 30 µg/mL [1] is on record?
Answer: 91%

Question: And the inhibition of growth at 10 µg/mL [2]?
Answer: 73%

Question: What about the inhibition of growth at 3 µg/mL [3] of the same compound?
Answer: 68%

Question: What about the IC50 [4] of the same compound?
Answer: 6.16 µg/mL (≈ 8.71 µM)

Question: What about the IC90 [4] of the same compound?
Answer: 26.3 µg/mL (≈ 37.2 µM)

Question: What about the IC50 [5] of the same compound?
Answer: 2.7 µg/mL (≈ 3.82 µM)

Question: And the IC90 [5]?
Answer: 28.9 µg/mL (≈ 40.8 µM)

Question: And the IC50 [6]?
Answer: 3.44 µg/mL (≈ 4.87 µM)

Question: And the IC90 [6]?
Answer: 26.3 µg/mL (≈ 37.2 µM)

Question: And the IC50 [7]?
Answer: 3.98 µg/mL (≈ 5.63 µM)

Question: And the IC90 [7]?
Answer: 26.9 µg/mL (≈ 38 µM)

Question: And the GI50 at 48 h [8]?
Answer: 76.2 µg/mL (≈ 108 µM)

Question: And the GI90 (THP-1)?
Answer: > 100 µg/mL

Question: What about the GI50 at 48 h ([9]; PANC-1 cells) of the same compound?
Answer: > 100 µg/mL

Question: And the GI90 ([9]; panc-1, 48 h)?
Answer: > 100 µg/mL

Question: And the GI50 at 48 h [10]?
Answer: > 100 µg/mL

Question: What about the GI90 (A549) of the same compound?
Answer: > 100 µg/mL

Question: And the inhibition of growth at 30 µg/mL (Escherichia coli)?
Answer: 43.2%

Question: What about the inhibition of growth at 30 µg/mL (Pseudomonas fluorescens) of the same compound?
Answer: 29.9%

Question: And the inhibition of growth at 30 µg/mL (Staphylococcus aureus)?
Answer: 11.9%

Question: What about the “growth inhibition (GI)” value (Bacillus subtilis) of the same compound?
Answer: inactive
